Laboratory results: US20230272002A1, “PHOTOREDOX PROTEIN MODIFICATION” (THE ROSALIND FRANKLIN INSTITUTE, priority 2020, published 2023)

T1: KDM4A (Homo sapiens, UniProt O75164)
T1 sequence (O75164 1-1064): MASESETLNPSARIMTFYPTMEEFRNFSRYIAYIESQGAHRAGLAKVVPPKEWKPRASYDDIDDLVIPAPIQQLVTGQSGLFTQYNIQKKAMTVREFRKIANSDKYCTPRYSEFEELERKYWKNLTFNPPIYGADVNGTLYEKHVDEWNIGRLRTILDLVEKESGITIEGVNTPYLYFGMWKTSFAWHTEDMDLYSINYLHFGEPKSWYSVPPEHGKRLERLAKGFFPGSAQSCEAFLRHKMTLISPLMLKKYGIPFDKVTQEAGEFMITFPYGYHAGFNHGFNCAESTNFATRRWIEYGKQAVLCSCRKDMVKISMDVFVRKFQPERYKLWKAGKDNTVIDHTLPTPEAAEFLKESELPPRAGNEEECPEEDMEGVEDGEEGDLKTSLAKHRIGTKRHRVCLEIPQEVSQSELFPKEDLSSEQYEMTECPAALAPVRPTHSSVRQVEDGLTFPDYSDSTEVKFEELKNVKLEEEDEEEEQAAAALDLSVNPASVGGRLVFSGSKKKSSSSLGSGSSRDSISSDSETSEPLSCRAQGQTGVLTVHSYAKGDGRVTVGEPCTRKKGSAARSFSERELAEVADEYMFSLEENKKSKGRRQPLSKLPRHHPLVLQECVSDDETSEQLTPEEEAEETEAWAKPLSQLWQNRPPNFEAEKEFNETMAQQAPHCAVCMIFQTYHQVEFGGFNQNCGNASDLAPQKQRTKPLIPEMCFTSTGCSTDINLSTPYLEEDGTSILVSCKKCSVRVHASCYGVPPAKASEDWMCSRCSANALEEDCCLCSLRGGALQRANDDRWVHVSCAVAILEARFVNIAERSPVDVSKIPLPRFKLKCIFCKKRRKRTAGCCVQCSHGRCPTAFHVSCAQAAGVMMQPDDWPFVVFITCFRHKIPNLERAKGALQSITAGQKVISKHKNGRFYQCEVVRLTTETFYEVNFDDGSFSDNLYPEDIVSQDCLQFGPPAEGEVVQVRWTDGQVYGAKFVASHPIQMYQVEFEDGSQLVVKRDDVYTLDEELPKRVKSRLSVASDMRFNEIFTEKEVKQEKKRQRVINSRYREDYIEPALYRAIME

T2: Sirt2 (Homo sapiens, UniProt Q8IXJ6)
T2 construct: His tag (inferred from the HisTrap purification); made in house; host or cells: E. coli BL21(DE3)
T2 sequence (Q8IXJ6 1-389): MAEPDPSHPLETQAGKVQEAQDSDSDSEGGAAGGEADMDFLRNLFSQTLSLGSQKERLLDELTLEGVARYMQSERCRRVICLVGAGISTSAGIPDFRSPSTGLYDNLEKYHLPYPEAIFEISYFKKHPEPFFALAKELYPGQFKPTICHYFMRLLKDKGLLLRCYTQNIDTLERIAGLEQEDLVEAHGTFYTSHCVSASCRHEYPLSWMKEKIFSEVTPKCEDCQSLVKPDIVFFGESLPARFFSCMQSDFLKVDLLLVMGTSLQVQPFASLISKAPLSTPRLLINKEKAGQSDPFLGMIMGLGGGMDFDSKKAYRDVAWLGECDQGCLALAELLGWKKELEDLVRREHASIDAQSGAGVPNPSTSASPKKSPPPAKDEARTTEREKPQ


Experiments:
[1] = molecular target: T1, KDM4A; test: Zn ejection assay (TSQ Zn(II) fluorophore); type: biochemical; conditions: 20 μM compound, 2 μM KDM4A
Procedure: Zn ejection assay was performed using N-(6-nethoxy-8-quinolyl)-p-toluenesulfonamide (TSQ) (Enzo) Zn(II) fluorophore as described with minor modifications28,33. In brief, assays were performed in 384 well black μCLEAR® non-binding plates (Grenier) using a reaction volume of 100 μL at 37° C. on a BMG CLARIOstar (360ex/490em). The plate was shaken (5 s, 700 rpm) before each reading, taken every 22 s for 270 cycles. Reactions consisted of […], 25 μM Ebselen or 20 μM H3 K9Bhn/H3-wt/4-bromobutylboronic acid, and those with enzyme contained 2 μM KDM4A all with 1.1% (v/v) DMSO in 50 mM HEPES (pH 7.5). Compounds and TSQ were added to the plate before initiating the assay with addition of KDM4A using the CLARIOstar injector (FIG. 4d). An internal calibration curve of ZnCl2 (0-2 μM) in 50 mM HEPES (pH 7.5) was included in each experiment to quantitate the concentrations of Zn(II) ejected. Data were normalised by subtracting a no enzyme control for that compound at each time point. Mean±standard deviation (n=3 technical replicates) was plotted for each time point using GraphPad Prism 5.0, representative data from three biological replicates is shown.
The rate of Zn(II) ejection was calculated from the slope of linear regression plotted over the linear region of Zn(II) ejection (from 946-3982 s) plotted in GraphPad Prism 5.0. […]

[2] = Cyclic voltammetry; type: physicochemical
Procedure: Catechol and 4-bromobutylboronic acid were obtained from Sigma-Aldrich and used as received without further purification. All solutions were made up using ultrapure water of resistivity not less than 18.2 MQ cm (Millipore) at 25° C. and degassed thoroughly with nitrogen (99.998%, BOC Gases plc) before use. Phosphate buffered saline (PBS) solution (pH=6.0) consisting of 43.85 mM sodium phosphate monobasic and 6.15 mM potassium phosphate dibasic.
All voltammetric measurements were recorded using an Autolab PGSTAT30 computer controlled potentiostat (Metrohm, Utrecht, The Netherlands). Experiments were performed in a thermostatted (25.0+0.3° C.) Faraday cage using a three-electrode set-up. A glassy carbon macroelectrode (diameter 3.0 mm, CH Instrument) was used as the working electrode, a saturated calomel electrode (SCE) as the reference electrode (SCE, ALS distributed by BASi, Tokyo, Japan) and a graphite rod as the counter electrode. Prior to each voltammetric experiment, renewal of the working electrode surface was achieved by polishing with alumina slurries in the size sequence 1.0 m, 0.3 m and 0.05 m, (Buehler Ltd, USA) followed by sonication in water and drying with nitrogen.

[3] = molecular target: T2, Sirt2; test: Sirt2 deacylation of acylated histone H3-K18 (intact-protein LC-MS timecourse, 19F-NMR); type: biochemical; conditions: deacylation of γ-F2 labelled KAc side chain, protein 19F NMR
Text: H3-KAc18 and H3-KBzl8 were generated using BACED reagents (FIG. 4A).
The pySOOF reagents were also used to generate corresponding H—F labeled side chain analogues such as K[γF2]Ac and K[γF2] sidechains 2 k and 2f, respectively. […] Other sidechain variations could similarly be distinguished at different sites in the same protein e.g. H3.1-K9→H3.1-KAc9→H3.1-Kme39 (sidechains 2f→2 k→2j=δF −99.0→−98.0→−99.2) or H3.1-M27 (sidechain 2×δF −74.8) or H3.1-E9 (sidechain 2u δF −103.3). In this way, the diverse scope of available further sidechains allows this approach to be explored in numerous additional directions such as e.g. monitoring heteroatom variation (e.g. N→O, ‘deaza-oxo’ variant KOAc, sidechain 2r for H3.1-K18→H3.1-KOAc18, sidechains 2 k→2r) or even precisely assaying sidechain Met oxidation state (H3.1-M27→H3.1-Mox27→H3.1-Mox27, sidechains 2x→2y→2z).
Due to the site-selectivity of the insertion of this label and its excellent sensitivity in ‘zero background’, not only could chemical shift of ^19F signal be ‘read’ but also its multiplicity through correlated simulation (FIG. 4B).

Molecule | Time-dependent release of Zn(II) from KDM4A observed [1] | Zn(II)-ejection rate ([1]; 50 mM HEPES pH 7.5, 37° C., slope of linear region 946-3982 s) [nM/min] | oxidation in the absence of catechol ([2]; absence of catechol) | half potential Eox (irreversible oxidation event) ([2]; catechol-enhanced conditions (1:12), saturated calomel reference electrode) | L/D selectivity preference [3] | ΔΔG of L/D selectivity [3] [kcal/mol]
OB(O)CCCCBr [Example 1u-precursor, 4-bromobutylboronic acid] | not | 0.805 ± 0.010 | no oxidation was observed | +0.93 V |  | 
Sirt2: HDAC deacylation enzyme Sirt2 (protein, UniProt Q8IXJ6 2-389, looked up) NAD-dependent protein …: AEPDPSHPLETQAGKVQEAQDSDSDSEGGAAGGEADMDFLRNLFSQTLSLGSQKERLLDELTLEGVARYMQSERCRRVICLVGAGISTSAGIPDFRSPSTGLYDNLEKYHLPYPEAIFEISYFKKHPEPFFALAKELYPGQFKPTICHYFMRLLKDKGLLLRCYTQNIDTLERIAGLEQEDLVEAHGTFYTSHCVSASCRHEYPLSWMKEKIFSEVTPKCEDCQSLVKPDIVFFGESLPARFFSCMQSDFLKVDLLLVMGTSLQVQPFASLISKAPLSTPRLLINKEKAGQSDPFLGMIMGLGGGMDFDSKKAYRDVAWLGECDQGCLALAELLGWKKELEDLVRREHASIDAQSGAGVPNPSTSASPKKSPPPAKDEARTTEREKPQ |  |  |  |  | > 14 | > 1.58
